Reference: patent US10377770B2 (Novartis AG, priority 2015, dated 2019)

target: C-Raf FL (full length CRAF with Y340E and Y341E activating mutations, co-expressed with h14-3-3 zeta) (Homo sapiens (Human), UniProt P04049, Y340E/Y341E); assay: In vitro Raf activity determination, AlphaScreen p-MEK readout, c-Raf (C-Raf FL); type: biochemical; conditions: c-Raf approximately 4 nM, ATP 1 μM, pre-incubation 60 minutes, reaction 1 hour
Method in brief: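 Phosphorylation of kinase-dead biotinylated MEK1 (~10 nM) by C-Raf FL (~4 nM) read by AlphaScreen luminescence with anti-phospho-MEK1/2 after EDTA stop. ATP was 1 μM, with a 1 h reaction at room temperature. Compounds were pre-incubated with enzyme and substrate for 60 min in Tris/MgCl2 buffer, pH 7.5.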

Sequence of C-Raf FL (full length CRAF with Y340E and Y341E activating mutations, co-expressed with h14-3-3 zeta) (P04049 whole entry Y340E/Y341E): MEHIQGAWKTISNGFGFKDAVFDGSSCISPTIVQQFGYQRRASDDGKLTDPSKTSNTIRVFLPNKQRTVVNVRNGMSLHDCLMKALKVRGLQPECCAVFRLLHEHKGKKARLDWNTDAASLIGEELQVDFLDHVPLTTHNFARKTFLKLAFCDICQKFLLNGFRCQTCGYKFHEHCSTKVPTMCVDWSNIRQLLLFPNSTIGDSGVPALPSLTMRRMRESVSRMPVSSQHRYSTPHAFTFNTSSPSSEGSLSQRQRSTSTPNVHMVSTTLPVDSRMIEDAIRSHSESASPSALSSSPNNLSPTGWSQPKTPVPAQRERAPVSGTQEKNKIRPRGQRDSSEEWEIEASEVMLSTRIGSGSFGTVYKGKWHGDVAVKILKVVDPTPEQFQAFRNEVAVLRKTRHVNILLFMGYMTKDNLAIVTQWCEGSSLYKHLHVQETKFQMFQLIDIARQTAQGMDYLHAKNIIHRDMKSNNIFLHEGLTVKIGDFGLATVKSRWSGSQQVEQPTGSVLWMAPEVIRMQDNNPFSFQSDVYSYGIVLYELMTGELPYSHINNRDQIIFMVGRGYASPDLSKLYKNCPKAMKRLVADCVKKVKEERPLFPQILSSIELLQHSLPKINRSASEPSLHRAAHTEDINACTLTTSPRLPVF
Sequence of C-Raf FL (full length CRAF with Y340E and Y341E activating mutations, co-expressed with h14-3-3 zeta) (P63104 whole entry partner): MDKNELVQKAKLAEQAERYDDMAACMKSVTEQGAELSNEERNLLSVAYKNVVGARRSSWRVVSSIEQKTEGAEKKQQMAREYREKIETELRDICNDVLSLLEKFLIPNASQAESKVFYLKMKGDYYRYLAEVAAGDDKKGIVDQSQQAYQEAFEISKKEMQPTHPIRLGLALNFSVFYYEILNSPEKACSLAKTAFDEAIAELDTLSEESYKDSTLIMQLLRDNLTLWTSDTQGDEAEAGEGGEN

**Q.** `Cc1ccc(NC(=O)c2ccnc(C(F)(F)F)c2)cc1-c1ccc2c(c1)N1CCOCC1C(CO)C2` (racemic) [Example 59, (rac)-N-(3-(5-(hydroxymethyl)-1,2,4,4a,5,6-hexahydro-[1,4]oxazino[4,3-a]quinolin-9-yl)-4-methylphenyl)-2-(trifluoromethyl)isonicotinamide] was tested. Which IC50 did it give?
**A.** Its IC50 is 0.0089 nM.

**Q.** For `CCN1C(=O)N2COCCC2(C)c2cc(-c3cc(NC(=O)c4cccc(C(F)(F)F)c4)cnc3C)ccc21` (stereo not shown) [Example 245, N-(5-(7-ethyl-11b-methyl-6-oxo-1,2,4,6,7,11b-hexahydro-[1,3]oxazino[3,4-c]quinazolin-10-yl)-6-methylpyridin-3-yl)-3-(trifluoromethyl) benzamide], which IC50 is on record?
**A.** Its IC50 is 0.2 nM.

**Q.** For `CCN1C[C@H]2COCCN2c2cc(-c3cc(NC(=O)c4cccc(C(F)(F)F)c4)cnc3C)cnc2C1=O` [Example 497, (S)-N-(5-(6-ethyl-7-oxo-1,2,4a,5,6,7-hexahydro-4H-[1,4]oxazino[4,3-a]pyrido[2,3-f][1,4]diazepin-10-yl)-6-methylpyridin-3-yl)-3-(trifluoromethyl) benzamide], which IC50 is on record?
**A.** Its IC50 is 1.4 nM.

**Q.** With `Cc1ccc(NC(=O)c2ccnc(C(C)(C)F)c2)cc1-c1cnc2c(c1)N1CCOC[C@@H]1C[C@@H]2O` [Example 143, 2-(2-fluoropropan-2-yl)-N-(3-((4aS,6S)-6-hydroxy-1,2,4,4a,5,6-hexahydro-[1,4]oxazino[4,3 a][1,5]naphthyridin 9-yl)-4-methylphenyl)isonicotinamide] as the molecule, how does the IC50 read?
**A.** The IC50 was 0.0088 nM.

**Q.** Which IC50 does the source give for `CCN1C(=O)C2COCC[C@@]2(C)c2cc(-c3cc(NC(=O)c4cncc(C(F)(F)F)c4)ccc3C)cnc21` (stereo in doubt) [Example 346, N-(3-((4a,10b-trans)-6-ethyl-10b-methyl-5-oxo-1,4,4a,5,6,10b-hexahydro-2H-pyrano[3,4-c][1,8]naphthyridin-9-yl)-4-methylphenyl)-5-(trifluoromethyl)nicotinamide] here?
**A.** Its IC50 is 0.1 nM.

**Q.** `Cc1ccc(NC(=O)c2ccnc(C(F)(F)F)c2)cc1-c1ccc2c(c1)N1CCOCC1CC2` (racemic) [Example 21, (rac)-N-(3-(1,2,4,4a,5,6-hexahydro-[1,4]oxazino[4,3-a]quinolin-9-yl)-4-methylphenyl)-2-(trifluoromethyl)isonicotinamide] was tested. Which IC50 did it give?
**A.** The IC50 was 0.0012 nM.

**Q.** `Cc1ccc(NC(=O)c2ccnc(C(F)(F)F)c2)cc1-c1cnc2c(c1)N1CCOCCC1CC(=O)N2CCO` (stereo not shown) [Example 318, N-(3-(8-(2-hydroxyethyl)-7-oxo-1,2,4,5,5a,6,7,8-octahydropyrido[3′, 2′:2,3][1,4]diazepino [1,7-d][1,4]oxazepin-11-yl)-4-methylphenyl)-2-(trifluoromethyl) isonicotinamide] was tested. Which IC50 did it give?
**A.** The IC50 was 1.4 nM.

**Q.** `Cc1ccc(NC(=O)c2cnnc(C(F)(F)F)c2)cc1-c1cc(F)c2c(c1)N1CCOC[C@@H]1[C@](F)(CO)C2` [Example 439, N-(3-((4aR,5S)-5,7-difluoro-5-(hydroxymethyl)-1,2,4,4a,5,6-hexahydro-[1,4]oxazino[4,3-a]quinolin-9-yl)-4-methylphenyl)-6-(trifluoromethyl) pyridazine-4-carboxamide] was tested. Which IC50 did it give?
**A.** Its IC50 is 0.1 nM.

**Q.** `Cc1ccc(NC(=O)c2ccnc(C(C)(C)C#N)c2)cc1-c1ccc2c(c1)N1CCOC[C@@H]1[C@](F)(CO)C2` [Example 401, 2-(2-cyanopropan-2-yl)-N-(3-((4aR,5S)-5-fluoro-5-(hydroxymethyl)-1,2,4,4a,5,6-hexahydro-[1,4]oxazino[4,3-a]quinolin-9-yl)-4-methylphenyl)isonicotinamide] was tested. Which IC50 did it give?
**A.** Its IC50 is 0.3 nM.

**Q.** How did the IC50 turn out when `Cc1ccc(NC(=O)c2cnnc(C(F)(F)F)c2)cc1-c1ccc2c(c1)N1CCOCC1CC2O` (racemic) [Example 10, (rac)-N-(3-(6-hydroxy-1,2,4,4a,5,6-hexahydro-[1,4]oxazino[4,3-a]quinolin-9-yl)-4-methylphenyl)-6-(trifluoromethyl)pyridazine-4-carboxamide] was run?
**A.** The IC50 was 0.036 nM.

**Q.** How did the IC50 turn out when `Cc1ccc(NC(=O)c2ccnc(C(C)(C)F)c2)cc1-c1cnc2c(c1)N1CCOC[C@H]1C[C@@H]2O` (racemic) [Example 141, rac-cis-2-(2-fluoropropan-2-yl)-N-(3-(6-hydroxy-1,2,4,4a,5,6-hexahydro-[1,4]oxazino[4,3-a][1,5]naphthyridin-9-yl)-4-methylphenyl)isonicotinamide] was run?
**A.** The IC50 was 0.0042 nM.

**Q.** `Cc1ccc(NC(=O)c2ccnc(C(C)(F)F)c2)cc1-c1cc2n(c(=O)c1)CC[C@H]1COCCN21` [Example 411, (S)-2-(1,1-difluoroethyl)-N-(4-methyl-3-(8-oxo-1,2,4,4a,5,6-hexahydro-8H-pyrido[2′,1′:2,3]pyrimido[6,1-c][1,4]oxazin-10-yl)phenyl)isonicotinamide] was tested. Which IC50 did it give?
**A.** The IC50 was 0.2 nM.

**Q.** Which IC50 does the source give for `Cc1ccc(NC(=O)c2ccnc(C(C)(F)F)c2)cc1-c1cnc2c(c1)N1CCOCC1C(CS(C)(=O)=O)C2` (stereo not shown) [Example 99, 2-(1,1-difluoroethyl)-N-(4-methyl-3-(5-((methylsulfonyl)methyl)-1,2,4,4a,5,6-hexahydro-[1,4]oxazino[4,3-a][1,5]naphthyridin-9-yl)phenyl)isonicotinamide] here?
**A.** Its IC50 is 0.038 nM.

**Q.** How did the IC50 turn out when `COC1CC2COCCN2c2cc(-c3cc(NC(=O)c4ccnc(C(C)(F)F)c4)ccc3C)cnc21` (stereo not shown) [Example 33, 2-(1,1-difluoroethyl)-N-(3-(6-methoxy-1,2,4,4a,5,6-hexahydro-[1,4]oxazino[4,3-a][1,5]naphthyridin-9-yl)-4-methylphenyl)isonicotinamide] was run?
**A.** The IC50 was 0.0082 nM.

**Q.** Which IC50 does the source give for `CCN1C(=O)[C@@H]2[C@H]3COC[C@H]3[C@@H]2c2cc(-c3cc(NC(=O)c4ccnc(C(C)(F)F)c4)ccc3C)cnc21` [Example 269, 2-(1,1-difluoroethyl)-N-(3-((6aS, 6bS, 9aS, 9bS)-5-ethyl-6-oxo-5,6,6a,6b,7,9,9a,9b-octahydrofuro[3′,4′: 3,4]cyclobuta[1,2-c][1,8]naphthyridin-2-yl)-4-methylphenyl) isonicotinamide] here?
**A.** The IC50 was 0.3 nM.

**Q.** Which IC50 does the source give for `Cc1ccc(NC(=O)c2ccnc(C(C)(C)F)c2)cc1-c1cc(F)c2c(c1)N1CCOC[C@H]1[C@](F)(CO)C2` [Example 422, N-(3-((4aS,5S)-5,7-difluoro-5-(hydroxymethyl)-1,2,4,4a,5,6-hexahydro-[1,4]oxazino[4,3-a]quinolin-9-yl)-4-methylphenyl)-2-(2-fluoropropan-2-yl)isonicotinamide] here?
**A.** The IC50 was 1 nM.

**Q.** How did the IC50 turn out when `Cc1ncc(NC(=O)c2cccc(C(F)(F)F)c2)cc1-c1cnc2c(c1)N1CCOC[C@H]1C[C@]2(C)O` (racemic) [Example 44, (rac)-(cis)-N-(5-(6-hydroxy-6-methyl-1,2,4,4a,5,6-hexahydro-[1,4]oxazino[4,3-a][1,5]naphthyridin-9-yl)-6-methylpyridin-3-yl)-3-(trifluoromethyl)benzamide] was run?
**A.** Its IC50 is 0.037 nM.

**Q.** For `Cc1ccc(NC(=O)c2ccnc(C(F)(F)F)c2)cc1-c1cc(F)c2c(c1)N1CCOC[C@H]1[C@@](F)(CO)C2` [Example 429, N-(3-((4aS,5R)-5,7-difluoro-5-(hydroxymethyl)-1,2,4,4a,5,6-hexahydro-[1,4]oxazino[4,3-a]quinolin-9-yl)-4-methylphenyl)-2-(trifluoromethyl)isonicotinamide], which IC50 is on record?
**A.** The IC50 was 0.8 nM.

**Q.** For `Cc1ncc(NC(=O)c2ccnc(C(C)(F)F)c2)cc1-c1ccc2c(c1)N1CCOC[C@@H]1[C@@](F)(CO)C2` [Example 85, 2-(1,1-difluoroethyl)-N-(5-((4aR,5R)-5-fluoro-5-(hydroxymethyl)-1,2,4,4a,5,6-hexahydro-[1,4]oxazino[4,3-a]quinolin-9-yl)-6-methylpyridin-3-yl)isonicotinamide], which IC50 is on record?
**A.** The IC50 was 0.07 nM.
